Experimental data from PubChem BioAssay (NCI).
Values joined by “and” are separate entries in the source; they are usually repeats but may differ in a detail not shown here. Equal entries are not always repeated.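 How tested: cells in 96-well plates exposed to compound for 48 hours at five concentrations. Abbreviation: GI50, concentration required for 50% inhibition of growth. TGI: total growth inhibition.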 Where a SMILES comes first, the peptide text is derived from it. [ ]: non-standard residue; d: D form. ξ: configuration not given here. Pentanoyl(2-O,4-OH,5-Cl) = O=C(O)C(O)CC(O)CCl; Ile(3ξ) = CCC(C)[C@H](N)C(=O)O; NMeV = CN[C@H](C(=O)O)C(C)C; NMeA = CN[C@@H](C)C(=O)O; βAla = NCCC(=O)O

Assays:
Assay in all cases: NCI anticancer screen, dose series, 48 h
HCT-116 colon = system: HCT-116 colon
RPMI-8226 leukemia = system: RPMI-8226 leukemia
A498 renal = system: A498 renal
SW-620 colon = system: SW-620 colon
ACHN renal = system: ACHN renal
NCI-H522 lung = system: NCI-H522 lung
M14 melanoma = system: M14 melanoma
HT29 colon = system: HT29 colon
COLO 205 colon = system: COLO 205 colon
U251 CNS = system: U251 CNS

SMILES | GI50 (HCT-116 colon) | TGI (HCT-116 colon) | GI50 (RPMI-8226 leukemia) | TGI (RPMI-8226 leukemia) | TGI (A498 renal) | GI50 (SW-620 colon) | TGI (SW-620 colon) | GI50 (ACHN renal) | TGI (ACHN renal) | GI50 (NCI-H522 lung) | TGI (M14 melanoma) | GI50 (HT29 colon) | GI50 (COLO 205 colon) | TGI (COLO 205 colon) | GI50 (U251 CNS) | TGI (NCI-H522 lung) | TGI (HT29 colon) | TGI (U251 CNS) | GI50 (A498 renal) | GI50 (M14 melanoma)
COC1C(OC(=O)/C=C/C=C/C=C/C=C/C(=O)O)CCC2(CO2)C1C1(C)OC1CC=C(C)C (stereo unspecified) | 0.12 µM | > 100 µM | 0.165 µM | 78.6 µM | > 100 µM | 0.272 µM | > 100 µM | 0.373 µM | 49 µM | 0.137 µM | 69.8 µM | 0.181 µM | 0.157 µM | 26.1 µM | 0.032 µM | – | – | – | – | –
C=C1C(=O)O[C@@H]2C[C@@]3(C)CCC[C@H](C)C3=C[C@H]12 (tested in a mixture with another compound) | – | 2.93 µM | – | 4.05 µM | 3.58 µM | – | 3.97 µM | – | 6.98 µM | – | 2.75 µM | – | – | 3.18 µM | – | 2.94 µM | 5.34 µM | 9.93 µM | – | –
O=c1[nH]c(=O)n(Cc2ccc(C34CC5CC(CC(C5)C3)C4)c(O)c2)cc1F | 13.3 µM | 28.5 µM | 5.74 µM | 23.8 µM | 22.1 µM | 13.5 µM | 34.2 µM | 12.5 µM | 25.2 µM | 13.1 µM | 29.2 µM | 14.2 µM | 17.2 µM | 37.9 µM | 12.3 µM | 31.9 µM | 37.2 µM | 24.9 µM | 10.2 µM | 11.5 µM
CC(C)(C)CNCCO | – | > 100 µM | – | > 100 µM | > 100 µM | – | > 100 µM | – | > 100 µM | – | > 100 µM | – | – | > 100 µM | – | > 100 µM | > 100 µM | > 100 µM | – | –
Clc1ccc2c(NC3CCC(NC4CCCCC4)CC3)ccnc2c1 (stereo unspecified) | 3.26 µM | 13.9 µM | 2.26 µM | 14.5 µM | 27.4 µM | 1.92 µM | 4.19 µM | 4.85 µM | 17.1 µM | 3.37 µM | 3.19 µM | 1.57 µM | 1.65 µM | 3.2 µM | 3.6 µM | 14 µM | 7.88 µM | 13.3 µM | 4.07 µM | 1.72 µM
CN(N=O)C(=O)NC(CCCCNC(=O)OCc1ccccc1)C(=O)OCc1ccccc1 (stereo unspecified) | – | > 100 µM | – | 95.4 µM | > 100 µM | – | > 100 µM | – | 32.3 µM | – | 36.9 µM | – | – | 47.2 µM | – | 29.1 µM | > 100 µM | > 100 µM | – | –
C=CC(=O)N1CCN([C@@H](CC2CC2)c2ccc([C@H](C)Nc3ncc4c(n3)N(CC)C(=O)OC4)cc2)CC1 | 7.67 µM | 21.9 µM | 4.95 µM | 24.9 µM | 23.6 µM | 14.2 µM | 31.1 µM | 14.5 µM | 27.9 µM | 10.2 µM | 30.1 µM | 17.5 µM | 16.9 µM | 36 µM | 11.8 µM | 26.1 µM | 50.7 µM | 26.3 µM | 11.2 µM | 15.5 µM
COc1ccc2c(c1[N+](=O)[O-])CC[C@@H]1[C@@H]2CC[C@]2(C)C(=O)CC[C@@H]12 | > 1000 µM | – | > 1000 µM | > 1000 µM | > 25 µM and 791 µM | > 1000 µM | > 1000 µM | 424 µM | > 1000 µM | 590 µM | > 562 µM | > 1000 µM | > 1000 µM | – | 476 µM | > 957 µM | > 1000 µM | > 1000 µM | 352 µM | > 562 µM
CCC(C)[C@@H]1NC(=O)[C@@H]2CCCN2C(=O)C(CC(O)CCl)OC(=O)CCNC(=O)[C@H](C)N(C)C(=O)[C@H](C(C)C)N(C)C1=O (stereo partly specified) (cyclo([Ile(3ξ)][NMeV][NMeA][βAla][Pentanoyl(2-O,4-OH,5-Cl)]P)) | – | > 100 µM | – | > 100 µM | > 93.5 µM | – | > 100 µM | – | > 100 µM | – | 3.09 µM | – | – | > 31.6 µM | – | > 100 µM | > 100 µM | > 100 µM | – | –
Clc1cccc(-c2cc(-c3ccc4c(c3)OCCO4)[nH]n2)c1 | 5.96 µM | 40.3 µM | 6.38 µM | 250 µM | 18.5 µM | 1.09 µM | 44.9 µM | 9.69 µM | 41 µM | 1.48 µM | 35.3 µM | 0.952 µM | 1.42 µM | 30.1 µM | 6.83 µM | 37.2 µM | 31.6 µM | 43 µM | 1.73 µM | 1.49 µM
O=NN(CC1(O)OCC(O)C(O)C1O)C(Cc1c[nH]c2ccccc12)C(=O)O (stereo unspecified) | – | > 100 µM | – | > 100 µM | > 100 µM | – | > 100 µM | – | > 100 µM | – | > 100 µM | – | – | > 100 µM | – | > 100 µM | > 100 µM | > 100 µM | – | –
CCN(CC)C(=O)c1cccc2c(OC)ccc(OC)c12 | – | > 100 µM | – | > 100 µM | > 100 µM | – | > 100 µM | – | > 100 µM | – | > 100 µM | – | – | > 100 µM | – | > 100 µM | > 100 µM | > 100 µM | – | –
c1ccc2[nH]c(-c3ccc(Nc4nc(N5CCCC5)nc5[nH]ncc45)cc3)nc2c1 | 0.203 µM | 0.473 µM | 0.221 µM | 0.528 µM | 3.01 µM | 0.211 µM | 0.486 µM | 0.347 µM | 1.07 µM | 0.244 µM | 1.62 µM | 0.211 µM | 0.217 µM | 0.486 µM | 0.185 µM | 1.07 µM | 0.495 µM | 0.39 µM | 1.51 µM | 0.403 µM
CN(C)CCN1C(=O)c2cccc3cc(N)cc(c23)C1=O | 3.21 µM | > 60.2 µM and 9.87 µM | 3.37 µM | 25.2 µM and 19.9 µM | 13.8 µM and 8.93 µM | 2.14 µM | 24.3 µM and 15.9 µM | 1.33 µM | 4.47 µM and 3.63 µM | 3.21 µM | 16.7 µM and 8.69 µM | 2.75 µM | 2.23 µM | 14.7 µM and 7.19 µM | 2.85 µM | 11.6 µM and 10.3 µM | 12 µM and 14.1 µM | > 46.7 µM and 20.6 µM | – | –
O=C1C2C3SC(c4cc5ccccc5cc43)C2C(=O)N1c1ccccc1 (stereo unspecified) | – | > 100 µM | – | > 100 µM | > 100 µM | – | > 100 µM | – | > 100 µM | – | > 100 µM | – | – | > 100 µM | – | > 100 µM | > 100 µM | > 100 µM | – | –
